Tests used:
[1] = pH of zirconium oxychloride / arginine solutions; assay type: physicochemical; settings: 1% zirconium oxychloride with varied arginine, 10 g samples, incubated 1 day at 50° C., cooled to room temperature
Experimental: Samples were prepared according to Table 1. Water was added to zirconium oxychloride (ZrOCl2.8H2O, MW 322.25) in a glass jar to yield a clear solution containing 1% zirconium oxychloride. Under stirring, L-arginine was slowly added to prevent clumping of arginine as well as large fluctuations in localized pH values. The solutions were incubated for 1 day at 50° C. Then the solutions were cooled to room temperature. Solid gel was formed in samples with the molar ratio of arginine to zirconium oxychloride of 2-4.
A 100 g batch was prepared according to Table 2. 1% w/w zirconium oxychloride (ZrOCl2.8H2O, MW 322.25) and arginine were mixed in aqueous solution with the molar ratio of arginine to zirconium oxychloride of 1:1.
The zirconium oxychloride cluster was prepared as described in Example 1. The prepared zirconium oxychloride cluster was purified by gel permeability chromatograph (GPC). GPC column was prepared using Bio-Rad P2 gel with 5 μm particle size. Approximately 10 mL of prepared solution was filtered (0.45 μm) and loaded on the column using a HPLC pump at 0.2 mL/min. The mobile phase of the GPC chromatography was deionized water. Elution fractions were collected in intervals and monitored using SEC-RI. […] The pH of the GPC fraction (1160-1300 min) was 4.5. […] 10 g of this fraction was freeze dried to obtain purified powder for subsequent PXRD analysis.

[2] = cited from earlier work

In the case of `[Cl-].[Cl-].[O]=[Zr+2]` [Zr, zirconium oxychloride], the pH [1] is given as 1.39, the pH of solution ([2]; solution of zirconium oxychloride which is effective as an antiperspirant (background)) is given as “about 0.8” and the pH value ([2]; zirconium oxychloride alone (general statement)) is given as under 2.

Source: patent US11918667B2, “Zirconium-based cluster as an antiperspirant and deodorant active” (Colgate-Palmolive Company, priority 2017, dated 2024)
